Measurements from US11661419B2, “Benzimidazole derivative compounds and uses thereof” (Pfizer Inc., priority 2019, dated 2023).

Tests used:
[1] = system: IL-2 in activated CD4+ human T-cells; test: IL-2 inhibition in supernatants from activated CD4+ human T-cells (cisbio HTRF); assay type: cell-based; conditions: T-cell; geometric mean of count n; CD3/CD28-expanded human CD4+ T cells stimulated with ImmunoCult, 20 to 24 hrs
Protocol: IL-2-Inhibition Activity, IC50 (uM)
IL-2 inhibition activity in supernatants from activated CD4+ human T-cells was determined by measuring the effect of a test compound on the activity using the cisbio HTRF™ technology.
Human CD4+ T cells were activated with CD3/CD28 for 3 days and expanded for an additional 4-6 days (7 to 9 days total). On day 0, frozen CD4+ T cells were thawed, treated with CD3/CD28 Dynabeads, and incubated at 37° C./5% CO2. On day 3, the beads were removed, and the cells were diluted to 5×10^5 cells/cm^2, placed in G-Rex10 flask, and incubated at 37° C./5% CO2. On day 7 to day 9 the cells were removed from the G-Rex flasks, counted and diluted back to 1×10^6 cells/ml in standard tissue culture flask.
The expanded CD4+ T-cells were centrifuged at 300×g for 10 minutes and resuspended to 0.5 million cells per ml (30,000 cells/well). 60 μl of CD4+ T cells were added per well to a 384 well plate containing 0.1 μL of varying concentrations of test compound in DMSO. The plates were incubated for 15 min at 37° C./5% CO2. 20 μl of diluted ImmunoCult™ ([…] Technologies, 1:12.5 in T cell assay media) were added to all wells of the plate (1:50 final assay concentration). The plates were incubated for an additional 20 to 24 hrs at 37° C./5% CO2. The plates were centrifuged at 300×g for 10 minutes. 16 μL of supernatant was removed and combined with 4 μl of IL-2 HTRF Abs. (cisbio kit). Plates were incubated for 3 hours at RT and read with an EnVision plate reader at 665 nm and 615 nm wavelengths.

[2] = target: Tropomyosin receptor kinase A (TRKA, NTRK1) (Homo sapiens (Human), UniProt P04629); test: TRKA (NTRK1) enzyme Z'-LYTE assay; assay type: biochemical; conditions: arithmetic mean of count n; test compound 1 uM, ATP 1 mM
Protocol: Tropomyosin Receptor Kinase a (TRKA) Activity, % Inhibition
TRKA, also known as neurotrophic tyrosine kinase receptor type 1 (NTKR1) activity was determined by measuring the effect of a test compound on the activity against the NTRK1 enzyme using the ThermoFisher Z'-LYTE Assay fluorescence-based coupled enzyme format (www.thermofisher.com/selectscreen). […] The resulting effect value for the tested compound was compared to the assay controls to determine the % inhibition (%).

Chain of Tropomyosin receptor kinase A (TRKA, NTRK1) (P04629 33-796): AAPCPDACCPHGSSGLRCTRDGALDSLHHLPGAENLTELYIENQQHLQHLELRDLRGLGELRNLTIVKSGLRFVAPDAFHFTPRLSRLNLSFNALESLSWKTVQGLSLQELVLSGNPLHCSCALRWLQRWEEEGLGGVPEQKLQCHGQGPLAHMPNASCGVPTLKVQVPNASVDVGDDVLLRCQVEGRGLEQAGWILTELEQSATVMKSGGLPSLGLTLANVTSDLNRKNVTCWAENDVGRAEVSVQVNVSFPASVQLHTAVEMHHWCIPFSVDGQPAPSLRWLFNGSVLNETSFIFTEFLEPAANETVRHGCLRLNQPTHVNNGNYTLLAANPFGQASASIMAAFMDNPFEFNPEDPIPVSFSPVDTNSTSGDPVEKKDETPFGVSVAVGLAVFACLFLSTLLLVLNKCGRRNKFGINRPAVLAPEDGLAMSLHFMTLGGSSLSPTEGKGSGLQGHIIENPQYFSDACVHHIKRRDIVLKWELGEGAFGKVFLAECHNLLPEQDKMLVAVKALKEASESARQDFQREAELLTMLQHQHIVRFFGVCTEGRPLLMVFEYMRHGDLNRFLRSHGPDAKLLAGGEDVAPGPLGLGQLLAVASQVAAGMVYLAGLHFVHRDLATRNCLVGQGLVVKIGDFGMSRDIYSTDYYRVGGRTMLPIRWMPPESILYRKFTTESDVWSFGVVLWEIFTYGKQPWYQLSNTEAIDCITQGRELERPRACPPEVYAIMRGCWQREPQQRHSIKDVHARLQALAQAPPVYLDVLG

SMILES | IC50 [1] [nM] | inhibition at 1 µM [2] [%]
CCN(C(=O)[C@H](C)N1CCOCC1)c1cc2nc(-c3n[nH]c4c3C[C@@H]3C[C@]3(C)C4)[nH]c2cc1C [Example 6, (S)—N-ethyl-N-(6-methyl-2-((4aS,5aR)-5a-methyl-1,4,4a,5,5a,6-hexahydrocyclopropa[f]indazol-3-yl)-1H-benzo[d]imidazol-5-yl)-2-morpholinopropanamide] | 101 | 102
CN(C(=O)CC1CCOCC1)c1ccc2[nH]c(-c3n[nH]c4c3C[C@@H]3C[C@]3(C)C4)nc2c1 [Example 10, N-methyl-N-(2-((4aS,5aR)-5a-methyl-1,4,4a,5,5a,6-hexahydrocyclopropa[f]indazol-3-yl)-1H-benzo[d]imidazol-5-yl)-2-(tetrahydro-2H-pyran-4-yl)acetamide] | 67 | 104
C[C@@H](C(=O)N(C)c1cc(F)c2[nH]c(-c3n[nH]c4c3C[C@@H]3C[C@]3(C)C4)nc2c1)C1CCOCC1 [Example 12, (R)—N-(7-fluoro-2-((4aS,5aR)-5a-methyl-1,4,4a,5,5a,6-hexahydrocyclopropa[f]indazol-3-yl)-1H-benzo[d]imidazol-5-yl)-N-methyl-2-(tetrahydro-2H-pyran-4-yl)propanamide] | 25 | 94
C[C@@H](C(=O)N(C)c1ccc2[nH]c(-c3n[nH]c4c3C[C@@H]3C(F)(F)[C@]3(C)C4)nc2c1)N1CCOCC1 [Example 13, (S)—N-(2-((4aS,5aR)-5,5-difluoro-5a-methyl-1,4,4a,5,5a,6-hexahydrocyclopropa[f]indazol-3-yl)-1H-benzo[d]imidazol-5-yl)-N-methyl-2-morpholinopropanamide] | 3 | 99
COc1cc2[nH]c(-c3n[nH]c4c3C[C@@H]3C[C@]3(C)C4)nc2cc1N(C)C(=O)[C@H](C)N1CCOCC1 [Example 19, (S)—N-(6-methoxy-2-((4aS,5aR)-5a-methyl-1,4,4a,5,5a,6-hexahydrocyclopropa[f]indazol-3-yl)-1H-benzo[d]imidazol-5-yl)-N-methyl-2-morpholinopropanamide] | 57 | 98
C[C@@H](C(=O)N(C)c1cc2nc(-c3n[nH]c4c3C[C@@H]3C[C@]3(C)C4)[nH]c2cc1C#N)N1CCOCC1 [Example 21, (S)—N-(6-cyano-2-((4aS,5aR)-5a-methyl-1,4,4a,5,5a,6-hexahydrocyclopropa[f]indazol-3-yl)-1H-benzo[d]imidazol-5-yl)-N-methyl-2-morpholinopropanamide] | 98 | 91
CCN(C(=O)[C@H](C)N1CCOCC1)c1cc2nc(-c3n[nH]c4c3C[C@@H]3C[C@]3(C)C4)[nH]c2c(F)c1F [Example 25, (S)—N-(6,7-difluoro-2-((4aS,5aR)-5a-methyl-1,4,4a,5,5a,6-hexahydrocyclopropa[f]indazol-3-yl)-1H-benzo[d]imidazol-5-yl)-N-ethyl-2-morpholinopropanamide] | 101 | 101
Cc1cc2[nH]c(-c3n[nH]c4c3C[C@@H]3C[C@]3(C)C4)nc2cc1N(C)C(=O)CN1CCO[C@H](CO)C1 [Example 26, 2-((S)-2-(hydroxymethyl)morpholino)-N-methyl-N-(6-methyl-2-((4aS,5aR)-5a-methyl-1,4,4a,5,5a,6-hexahydrocyclopropa[f]indazol-3-yl)-1H-benzo[d]imidazol-5-yl)acetamide] | 212 | 99
Cc1cc2[nH]c(-c3n[nH]c4c3C[C@@H]3C[C@]3(C)C4)nc2cc1N(C)C(=O)CN1CCO[C@@H](C)C1 [Example 31, N-Methyl-N-(6-methyl-2-((4aS,5aR)-5a-methyl-1,4,4a,5,5a,6-hexahydrocyclopropa[f]indazol-3-yl)-1H-benzo[d]imidazol-5-yl)-2-((S)-2-methylmorpholino)acetamide] | 75 | 99
Cc1cc2[nH]c(-c3n[nH]c4c3C[C@@H]3C[C@]3(C)C4)nc2cc1N(C)C(=O)CN1C[C@@H](C)O[C@H](C)C1 [Example 32, 2-((2R,6R)-2,6-Dimethylmorpholino)-N-methyl-N-(6-methyl-2-((4aS,5aR)-5a-methyl-1,4,4a,5,5a,6-hexahydrocyclopropa[f]indazol-3-yl)-1H-benzo[d]imidazol-5-yl)acetamide] | 83 | 99
Cc1cc2[nH]c(-c3n[nH]c4c3C[C@@H]3C[C@]3(C)C4)nc2cc1N(C)C(=O)CN1CCOCC1 [Example 34, N-Methyl-N-(6-methyl-2-((4aS,5aR)-5a-methyl-1,4,4a,5,5a,6-hexahydrocyclopropa[f]indazol-3-yl)-1H-benzo[d]imidazol-5-yl)-2-morpholinoacetamide] | 103 | 98

Second part, the compound after the results:

IC50 [1] [nM] | inhibition at 1 µM [2] [%] | SMILES
42 | 92 | C[C@@H](C(=O)N(C)c1ccc2[nH]c(-c3n[nH]c4c3C[C@@H]3C[C@]3(C)C4)nc2c1)N1CCOCC1 [Example 14, (S)—N-methyl-N-(2-((4aS,5aR)-5a-methyl-1,4,4a,5,5a,6-hexahydrocyclopropa[f]indazol-3-yl)-1H-benzo[d]imidazol-5-yl)-2-morpholinopropanamide]
42 | 107 | C[C@@H](C(=O)N(C)c1cc(F)c2[nH]c(-c3n[nH]c4c3C[C@@H]3C[C@]3(C)C4)nc2c1)N1CCOCC1 [Example 15, (S)—N-(7-fluoro-2-((4aS,5aR)-5a-methyl-1,4,4a,5,5a,6-hexahydrocyclopropa[f]indazol-3-yl)-1H-benzo[d]imidazol-5-yl)-N-methyl-2-morpholinopropanamide]
65 | 116 | CCN(C(=O)[C@H](C)N1CCOCC1)c1cc(F)c2[nH]c(-c3n[nH]c4c3C[C@@H]3C[C@]3(C)C4)nc2c1 [Example 16, (S)—N-ethyl-N-(7-fluoro-2-((4aS,5aR)-5a-methyl-1,4,4a,5,5a,6-hexahydrocyclopropa[f]indazol-3-yl)-1H-benzo[d]imidazol-5-yl)-2-morpholinopropanamide]
53 | 98 | C[C@@H](C(=O)N(C)c1cc2nc(-c3n[nH]c4c3C[C@@H]3C[C@]3(C)C4)[nH]c2cc1Br)N1CCOCC1 [Example 20, (S)—N-(6-bromo-2-((4aS,5aR)-5a-methyl-1,4,4a,5,5a,6-hexahydrocyclopropa[f]indazol-3-yl)-1H-benzo[d]imidazol-5-yl)-N-methyl-2-morpholinopropanamide]
106 | 105 | C[C@@H](C(=O)N(C)c1cc2nc(-c3n[nH]c4c3C[C@@H]3C[C@]3(C)C4)[nH]c2c(F)c1F)N1CCOCC1 [Example 24, (S)—N-(6,7-difluoro-2-((4aS,5aR)-5a-methyl-1,4,4a,5,5a,6-hexahydrocyclopropa[f]indazol-3-yl)-1H-benzo[d]imidazol-5-yl)-N-methyl-2-morpholinopropanamide]
130 | 96 | C[C@@H](C(=O)N(C)c1cc(Br)c2[nH]c(-c3n[nH]c4c3C[C@@H]3C[C@]3(C)C4)nc2c1)N1CCOCC1 [Example 37, (S)—N-(7-bromo-2-((4aS,5aR)-5a-methyl-1,4,4a,5,5a,6-hexahydrocyclopropa[f]indazol-3-yl)-1H-benzo[d]imidazol-5-yl)-N-methyl-2-morpholinopropanamide]
85 | 96 | C[C@@H](C(=O)N(C)c1cc(C#N)c2[nH]c(-c3n[nH]c4c3C[C@@H]3C[C@]3(C)C4)nc2c1)N1CCOCC1 [Example 38, (S)—N-(7-cyano-2-((4aS,5aR)-5a-methyl-1,4,4a,5,5a,6-hexahydrocyclopropa[f]indazol-3-yl)-1H-benzo[d]imidazol-5-yl)-N-methyl-2-morpholinopropanamide]
103 | 96 | COc1cc(N(C)C(=O)[C@H](C)N2CCOCC2)cc2nc(-c3n[nH]c4c3C[C@@H]3C[C@]3(C)C4)[nH]c12 [Example 40, (S)—N-(7-methoxy-2-((4aS,5aR)-5a-methyl-1,4,4a,5,5a,6-hexahydrocyclopropa[f]indazol-3-yl)-1H-benzo[d]imidazol-5-yl)-N-methyl-2-morpholinopropanamide]
176 | 96 | C[C@@H](C(=O)N(C)c1cc(C(F)(F)F)c2[nH]c(-c3n[nH]c4c3C[C@@H]3C[C@]3(C)C4)nc2c1)N1CCOCC1 [Example 41, (S)—N-methyl-N-(2-((4aS,5aR)-5a-methyl-1,4,4a,5,5a,6-hexahydrocyclopropa[f]indazol-3-yl)-7-(trifluoromethyl)-1H-benzo[d]imidazol-5-yl)-2-morpholinopropanamide]
